# Results reported in article PMC9385704, “A tubulin binding molecule drives differentiation of acute myeloid leukemia cells” (iScience, 2022).
# Target: tubulin beta chain (TUBB) (Homo sapiens, UniProt P07437)
# Experiment: competition with photoaffinity probe […] in HL-60 cells; pull-down LC-MS/MS and anti-TUBB immunoblot
# Assay type: cell-based
# Sequence of tubulin beta chain (TUBB) (P07437 whole entry): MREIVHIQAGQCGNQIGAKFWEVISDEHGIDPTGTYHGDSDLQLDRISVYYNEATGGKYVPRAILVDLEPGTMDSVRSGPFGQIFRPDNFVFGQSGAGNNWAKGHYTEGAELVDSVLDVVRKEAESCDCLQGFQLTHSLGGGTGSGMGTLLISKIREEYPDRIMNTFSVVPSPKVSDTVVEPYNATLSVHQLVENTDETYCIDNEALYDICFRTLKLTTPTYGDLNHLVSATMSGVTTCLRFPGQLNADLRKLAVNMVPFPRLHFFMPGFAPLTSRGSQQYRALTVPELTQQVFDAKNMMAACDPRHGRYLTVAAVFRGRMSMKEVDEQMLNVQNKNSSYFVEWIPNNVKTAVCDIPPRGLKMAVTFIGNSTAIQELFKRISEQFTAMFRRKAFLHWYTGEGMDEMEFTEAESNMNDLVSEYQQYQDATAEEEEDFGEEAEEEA
structure (smiles),measurement,value
"Cc1cc(C#N)ccc1-c1cc2c(cn1)ncn2-c1ccc2c(C)n[nH]c2c1 [compound 5, 3-Methyl-4-[1-(3-methyl-1H-indazol-6-yl)imidazo[4,5-c]pyridin-6-yl]benzonitrile]",competition with photoaffinity probe 4 in HL-60 cells; pull-down LC-MS/MS and an,The results clearly show concentration-dependent competition with OXS0082555 and paclitaxel confirming tubulin beta chain as a direct target
